Results from paper PMC11858854, “In Vitro and In Vivo Assessment of Pharmacokinetic Profile of Peramivir in the Context of Inhalation Therapy” (Pharmaceuticals, 2025).

How the values were obtained:
[1] = biological target: T1, human OCTN1 (Homo sapiens, UniProt Q9H015); assay: Uptake study, MDCK cells overexpressing OCTN1; format: in vitro ADME
T1 construct: Huidi Jiang, Zhejiang University; host or cells: MDCK (MDCK-OCTN1); control MDCK-MOCK
T1 sequence (Q9H015 1-551): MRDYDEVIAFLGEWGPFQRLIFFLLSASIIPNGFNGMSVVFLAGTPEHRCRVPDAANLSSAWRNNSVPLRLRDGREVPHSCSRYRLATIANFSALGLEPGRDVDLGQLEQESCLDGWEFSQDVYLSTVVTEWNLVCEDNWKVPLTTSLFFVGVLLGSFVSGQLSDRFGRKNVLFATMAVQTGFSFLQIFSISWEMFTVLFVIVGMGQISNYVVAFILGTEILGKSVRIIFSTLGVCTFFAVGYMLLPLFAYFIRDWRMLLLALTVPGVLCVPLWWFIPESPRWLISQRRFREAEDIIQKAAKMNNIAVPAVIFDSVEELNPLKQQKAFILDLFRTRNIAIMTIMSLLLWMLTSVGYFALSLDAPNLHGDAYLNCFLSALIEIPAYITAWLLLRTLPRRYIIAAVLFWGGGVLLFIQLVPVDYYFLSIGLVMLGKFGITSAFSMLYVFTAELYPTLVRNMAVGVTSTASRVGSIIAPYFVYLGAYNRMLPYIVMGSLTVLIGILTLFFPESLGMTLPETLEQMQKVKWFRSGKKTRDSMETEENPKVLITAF
Procedure: (§1) All cells (HEK293-MOCK, HEK293-OCT1, HEK293-OCT2, MDCK-MOCK, MDCK-OCTN1, and MDCK-OCTN2) were cultured in DMEM medium supplemented with 10% FBS and PS (100 U/mL), at 37 °C in a humidified 5% CO2 incubator. Cells were seeded on 24-well plates at a density of 1 × 10^4 cells/well. For the uptake assay, the DMEM media were removed, and the cells were washed with pre-warmed Hank’s buffer three times (1 mL/well). Subsequent addition of inhibitor-free/inhibitor-containing buffer was pre-incubated for 30 min at 37 °C prior to the initiation of the uptake experiment. After the pre-incubating buffer was removed, 200 μL of pre-warmed test drugs solution (Hank’s buffer containing 10 µM and 50 µM peramivir) or a mixture of test drugs and inhibitor was added into each well, and the plates were incubated at 37 °C for 5 min. At the end of incubation, cells were washed and lysed as described above. The cell lysate was collected and stored at −40 °C for LC-MS/MS analysis and protein measurement. The negative control (MOCK cells) and positive control were included simultaneously.

[2] = set-up: method as in PMID 15196586; conditions: cited from earlier work
[3] = Pharmacokinetics study in rats (i.v. and tracheal nebulization, plasma); format: in vivo, rat; conditions: for AUC(0–t) / AUC(0–t)/D / AUC(0–∞) / Cmax or C0 / Cmax/D / MRT(0–t) / MRT(0–∞) / T1/2 / Tmax / Cl / Vss / Vz: rat plasma, Mean ± SD, n = 6
Procedure: Pharmacokinetic studies were performed on rats to examine the effects of two distinct routes of administration: intravenous (i.v.) and tracheal nebulization (i.t.). The two administration routes were established to provide different doses, with six SD rats randomly assigned and weighed for each route.
The intravenous group consisted of rats that were randomly allocated into two subgroups, receiving dosages of 3 mg/kg and 6 mg/kg, respectively. The i.t. group consisted of rats that were randomly allocated into four groups receiving doses of 0.3 mg/kg, 1 mg/kg, 3 mg/kg, and 6 mg/kg. Prior to and at 0.033, 0.083, 0.25, 0.5, 1, 2, 4, 6, 8, 12, and 24 h post-administration, about 200 μL of blood was obtained via jugular vein catheterization and transferred to an EP tube containing heparin. Following centrifugation for 10 min at 5000× g, the plasma was isolated and preserved in a refrigerator at −40 °C until analysis.
Noncompartmental PK parameter estimates were determined from individual concentration-time data, using Phoenix WinNonlin, version 8.1 (Certara USA, Princeton, NJ, USA). And the linear relationship between AUC(0–t) and the corresponding dose was analyzed. t tests were performed on pharmacokinetic parameters under different dosing regimens to analyse the differences in drug exposure in rats.

[4] = tested on: overexpressed cell lines (uptake transporters); assay: Uptake study by overexpression cell lines, 10 μM substrate; format: in vitro ADME; conditions: substrate concentration 10 μM
Procedure: as §1

CCC(CC)[C@H](NC(C)=O)[C@@H]1[C@H](O)[C@@H](C(=O)O)C[C@H]1N=C(N)N [Peramivir]
OCTN1 substrate status ([1]; MDCK-OCTN1): does not conclusively establish peramivir as a substrate for OCTN1
transporter-mediated uptake ratio (UR value) ([1]; MDCK-OCTN1, 50 μM): 3.19
inhibition ratio (IR value) ([1]; MDCK-OCTN1, 50 μM, inhibitor quinidine (500 μM)): 40.22%
BDDCS category ([2]; high solubility/low metabolism): BDDCS-III
BCS category ([2]; high solubility/low permeability): BCS-III
AUC(0–t) ([3]; i.t. 0.3 mg/kg): 405.17 ± 56.59 ng·h/mL
AUC(0–t)/D ([3]; i.t. 0.3 mg/kg): 1350.57 ± 188.64 kg·ng·h/mL/mg
AUC(0–∞) ([3]; i.t. 0.3 mg/kg): 407.71 ± 56.59 ng·h/mL
Cmax or C0 ([3]; i.t. 0.3 mg/kg): 204.67 ± 80.82 ng/mL
Cmax/D ([3]; i.t. 0.3 mg/kg): 682.22 ± 269.38 kg·ng/mL/mg
MRT(0–t) ([3]; i.t. 0.3 mg/kg): 1.62 ± 0.31 h
MRT(0–∞) ([3]; i.t. 0.3 mg/kg): 1.67 ± 0.33 h
T1/2 ([3]; i.t. 0.3 mg/kg): 1.07 ± 0.22 h
Tmax ([3]; i.t. 0.3 mg/kg): 0.37 ± 0.38 h
AUC(0–t) ([3]; i.t. 1 mg/kg): 1279.25 ± 93.59 ng·h/mL
AUC(0–t)/D ([3]; i.t. 1 mg/kg): 1279.25 ± 93.59 kg·ng·h/mL/mg
AUC(0–∞) ([3]; i.t. 1 mg/kg): 1291.03 ± 92.89 ng·h/mL
Cmax or C0 ([3]; i.t. 1 mg/kg): 544.17 ± 215.23 ng/mL
Cmax/D ([3]; i.t. 1 mg/kg): 544.17 ± 215.23 kg·ng/mL/mg
MRT(0–t) ([3]; i.t. 1 mg/kg): 2.08 ± 0.69 h
MRT(0–∞) ([3]; i.t. 1 mg/kg): 2.32 ± 1.07 h
T1/2 ([3]; i.t. 1 mg/kg): 4.10 ± 1.69 h
Tmax ([3]; i.t. 1 mg/kg): 0.67 ± 0.40 h
AUC(0–t) ([3]; i.t. 3 mg/kg): 4364.35 ± 583.02 ng·h/mL
AUC(0–t)/D ([3]; i.t. 3 mg/kg): 1454.78 ± 194.34 kg·ng·h/mL/mg
AUC(0–∞) ([3]; i.t. 3 mg/kg): 4673.22 ± 567.78 ng·h/mL
Cmax or C0 ([3]; i.t. 3 mg/kg): 2303.33 ± 1523.96 ng/mL
Cmax/D ([3]; i.t. 3 mg/kg): 767.78 ± 507.99 kg·ng/mL/mg
MRT(0–t) ([3]; i.t. 3 mg/kg): 3.15 ± 0.66 h
MRT(0–∞) ([3]; i.t. 3 mg/kg): 8.26 ± 4.04 h
T1/2 ([3]; i.t. 3 mg/kg): 27.20 ± 9.67 h
Tmax ([3]; i.t. 3 mg/kg): 0.29 ± 0.36 h
AUC(0–t) ([3]; i.t. 6 mg/kg): 8479.33 ± 883.87 ng·h/mL
AUC(0–t)/D ([3]; i.t. 6 mg/kg): 1413.22 ± 147.31 kg·ng·h/mL/mg
AUC(0–∞) ([3]; i.t. 6 mg/kg): 8852.22 ± 897.97 ng·h/mL
Cmax or C0 ([3]; i.t. 6 mg/kg): 3866.00 ± 2454.21 ng/mL
Cmax/D ([3]; i.t. 6 mg/kg): 644.33 ± 409.04 kg·ng/mL/mg
MRT(0–t) ([3]; i.t. 6 mg/kg): 3.41 ± 1.08 h
MRT(0–∞) ([3]; i.t. 6 mg/kg): 5.70 ± 1.84 h
T1/2 ([3]; i.t. 6 mg/kg): 17.73 ± 2.85 h
Tmax ([3]; i.t. 6 mg/kg): 0.29 ± 0.39 h
AUC(0–t) ([3]; i.v. 3 mg/kg): 3765.02 ± 247.43 ng·h/mL
AUC(0–t)/D ([3]; i.v. 3 mg/kg): 1255.00 ± 82.48 kg·ng·h/mL/mg
AUC(0–∞) ([3]; i.v. 3 mg/kg): 3773.97 ± 245.49 ng·h/mL
Cl ([3]; i.v. 3 mg/kg): 13.296 ± 0.8863 mL/min/kg
Cmax or C0 ([3]; i.v. 3 mg/kg): 12,705.55 ± 1264.79 ng/mL
MRT(0–t) ([3]; i.v. 3 mg/kg): 0.59 ± 0.06 h
MRT(0–∞) ([3]; i.v. 3 mg/kg): 0.62 ± 0.06 h
T1/2 ([3]; i.v. 3 mg/kg): 2.11 ± 1.25 h
Vss ([3]; i.v. 3 mg/kg): 0.49811 ± 0.0581 L/kg
Vz ([3]; i.v. 3 mg/kg): 2.46265 ± 1.56916 L/kg
AUC(0–t) ([3]; i.v. 6 mg/kg): 6048.04 ± 635.88 ng·h/mL
AUC(0–t)/D ([3]; i.v. 6 mg/kg): 1008.01 ± 105.98 kg·ng·h/mL/mg
AUC(0–∞) ([3]; i.v. 6 mg/kg): 6060.92 ± 637.85 ng·h/mL
Cl ([3]; i.v. 6 mg/kg): 16.654 ± 1.7818 mL/min/kg
Cmax or C0 ([3]; i.v. 6 mg/kg): 22,731.79 ± 5543.47 ng/mL
MRT(0–t) ([3]; i.v. 6 mg/kg): 0.47 ± 0.06 h
MRT(0–∞) ([3]; i.v. 6 mg/kg): 0.51 ± 0.07 h
T1/2 ([3]; i.v. 6 mg/kg): 3.07 ± 0.61 h
Vss ([3]; i.v. 6 mg/kg): 0.47267 ± 0.06358 L/kg
Vz ([3]; i.v. 6 mg/kg): 4.43299 ± 1.0131 L/kg
increase of mean residence time (MRT), inhaled vs intravenous ([3]; rat, equivalent doses): nearly tenfold
time of peak plasma concentration ([3]; rat, following inhalation): approximately 30 min
bioavailability ([3]; rat, inhalation vs intravenous): exceeding 100%
dose linearity of AUC and Cmax ([3]; rat, intratracheal, dose range 0.3 mg/kg to 6 mg/kg): linear pharmacokinetics
concentration of peramivir in uptake experiment (below the detection limit) [4]: < 2 nM
